Results from patent publication US20140072630A1, “COMBINATION THERAPY WITH NANOPARTICLE COMPOSITIONS OF TAXANE AND HEDGEHOG INHIBITORS” (ABRAXIS BIOSCIENCE, LLC, priority 2009, published 2014).
Several values for one entry are separate records, joined by “and”; a condition that tells them apart may be missing. Equal values may be shown once.

What was measured:
[1] = tested on: L3.6pl pancreatic cancer xenograft; assay: Tumor perfusion by contrast-enhanced ultrasound in L3.6pl xenograft; format: in vivo, mice
Method: The effects of IPI-926 on tumor perfusion were examined in the L3.6pl pancreatic cancer xenograft model. The L3.6pl tumor cell line was injected subcutaneously and treatment with IPI-926 was initiated. IPI-926 or vehicle was administered orally at 40 mg/kg for seven consecutive days. Mice were subjected to ultrasound image analysis using perfusion contrast enhancement (microbubbles) during the imaging procedure. […] The time to reach peak contrast was measured and there was a decrease in the IPI-926 treated animals compared to vehicle-treated animals.

[2] = tested on: L3.6pl pancreatic xenograft; assay: Tumor growth in L3.6pl pancreatic xenograft model; details: days post implant; IPI-926 40 mg/kg QOD, Abraxane 20 mg/kg QW1
Method: The L3.6pl human pancreatic cell line was implanted subcutaneously into mice and treatment was initiated on Day 10 after implant. IPI-926 was administered orally at 40 mg/kg every other day (“QOD”) and Abraxane® was administered i.v. at 20 mg/kg once a week (QW1). […] Mice remained on treatment and time to reach 1000 mm^3 was recorded. Once tumors reached 1000 mm^3, mice were taken off study.

[3] = tested on: ASPC-1 human pancreatic tumor; assay: Tumor growth in ASPC-1 human pancreatic tumor model; details: day 41, compared to vehicle control; IPI-926 40 mg/kg orally QOD, Abraxane 20 mg/kg i.v. QW1
Method: The ASPC-1 human pancreatic cell line was implanted subcutaneously and treatment was initiated on day 20 after implant. IPI-926 was administered orally at 40 mg/kg QOD and Abraxane® was dosed i.v. at 20 mg/kg QW1. The final i.v. dose of Abraxane® was administered on day 34 and the final dose of IPI-926 was administered on day 41. Re-growth was monitored after the treatment stopped.

murine Gli1 mRNA = assay: Q-RT-PCR of murine Gli1 mRNA in L3.6pl and ASPC-1 pancreatic cancer xenografts; format: in vivo, mice; details: IPI-926 orally 40 mg/kg, tumors collected 24 hours later; p<0.005
Text: (§1) The abilities of IPI-926 to regulate Gli1 expressions were examined in pancreatic cancer xenograft models of L3.6pl and ASPC-1. L3.6pl and ASPC-1 human pancreatic cell lines were implanted subcutaneously into mice. […] Human Hh ligand expression was detected and human Glil mRNA levels were not modulated with the treatment (data not shown).

human Gli1 mRNA = assay: Q-RT-PCR of human Gli1 mRNA in L3.6pl and ASPC-1 pancreatic cancer xenografts; format: in vivo; details: IPI-926 orally 40 mg/kg, tumors collected 24 hours later; data not shown
Text: as §1

[4] = tested on: human colon adenocarcinoma HT29 xenograft; assay: Tumor growth in human colon adenocarcinoma HT29 xenograft model; format: in vivo, mice; details: for tumor inhibition as single agent: i.p., 75 mg/kg qdx12 and 100 mg/kg qdx12
Method: The effects of each of ABI2012, ABI1914, ABI2088, and ABI2099 on tumor growth were studied in human colon adenocarcinoma HT29 xenograft model. Mice were implanted with HT29 cells and ABI2012, ABI1914, ABI2088, and […] were administered by intraperitoneal route (“i.p.”) to the mice at two dosages: 75 mg/kg qdx12 and 100 mg/kg qdx12. […] The body weights of the mice with HT 29 xenograft treated with ABI2012, ABI1914, ABI2088, or ABI2099 were monitored, as shown in FIGS. 5B and 5D.
The effects of the combination of various Hedgehog pathway inhibitors (ABI2012, ABI1914, ABI2088, or ABI2099) and Abraxane® were studied in HT29 xenograft model. Each of ABI2012, ABI1914, ABI2088, and ABI2099 was administered at 75 mg/kg qdx12, i.p. Abraxane® was administered at 10 mg/kg q4dx3, i.v. The tumor volumes were measured. […] The body weights of the mice with HT 29 xenograft treated with each of ABI2012, ABI1914, ABI2088, and ABI2099 in combination with Abraxane® were monitored, as shown in FIG. 6B.

EphB4(h) = EphB4(h) (Homo sapiens, UniProt P54760); assay: Kinase inhibition at 1 μM; format: biochemical; details: 1 μM of compound
Text: (§2) The activities of various hedgehog inhibitors (ABI2012, ABI1914, ABI2008, and ABI1915) on kinase inhibition were studied. […] The compounds were stable in microsomes.

cSRC(h) = cSRC(h) (Homo sapiens, UniProt P12931); assay: Kinase inhibition at 1 μM; format: biochemical; details: 1 μM of compound
Text: as §2

GF-1R(h), activate = GF-1R(h), activate (Homo sapiens, UniProt P08069); assay: Kinase inhibition at 1 μM; format: biochemical; details: 1 μM of compound
Text: as §2

Met(h) = Met(h) (Homo sapiens, UniProt P08581); assay: Kinase inhibition at 1 μM; format: biochemical; details: 1 μM of compound
Text: as §2

Ab1(h) = Ab1(h) (Homo sapiens, UniProt P00519); assay: Kinase inhibition at 1 μM; format: biochemical; details: 1 μM of compound
Text: as §2

mTOR(h) = mTOR(h) (Homo sapiens, UniProt P42345); assay: Kinase inhibition at 1 μM; format: biochemical; details: 1 μM of compound
Text: as §2

Ret(h) = Ret(h) (Homo sapiens, UniProt P07949); assay: Kinase inhibition at 1 μM; format: biochemical; details: 1 μM of compound
Text: as §2

cKit(h) = cKit(h) (Homo sapiens, UniProt P10721); assay: Kinase inhibition at 1 μM; format: biochemical; details: 1 μM of compound
Text: as §2

Flt3(h) = Flt3(h) (Homo sapiens, UniProt P36888); assay: Kinase inhibition at 1 μM; format: biochemical; details: 1 μM of compound
Text: as §2

Aurora-A(h) = Aurora-A(h) (Homo sapiens, UniProt O14965); assay: Kinase inhibition at 1 μM; format: biochemical; details: 1 μM of compound
Text: as §2

GSK3β(h) = GSK3β(h) (Homo sapiens, UniProt P49841); assay: Kinase inhibition at 1 μM; format: biochemical; details: 1 μM of compound
Text: as §2

MEK1(h) = MEK1(h) (Homo sapiens, UniProt Q02750); assay: Kinase inhibition at 1 μM; format: biochemical; details: 1 μM of compound
Text: as §2

PKBa(h) = PKBa(h) (Homo sapiens, UniProt P31749); assay: Kinase inhibition at 1 μM; format: biochemical; details: 1 μM of compound
Text: as §2

TrkA(h) = TrkA(h) (Homo sapiens, UniProt P04629); assay: Kinase inhibition at 1 μM; format: biochemical; details: 1 μM of compound
Text: as §2

EGFR(h) = EGFR(h) (Homo sapiens, UniProt P00533); assay: Kinase inhibition at 1 μM; format: biochemical; details: 1 μM of compound
Text: as §2

PDGFRa(h) = PDGFRa(h) (Homo sapiens, UniProt P16234); assay: Kinase inhibition at 1 μM; format: biochemical; details: 1 μM of compound
Text: as §2

[5] = Drug metabolism and pharmacokinetics, IV and oral dosing; format: in vivo
[6] = compound 75 mg/kg qdx12 i.p. + Abraxane 10 mg/kg q4dx3 i.v.

Sequence of EGFR(h) (P00533 25-1210): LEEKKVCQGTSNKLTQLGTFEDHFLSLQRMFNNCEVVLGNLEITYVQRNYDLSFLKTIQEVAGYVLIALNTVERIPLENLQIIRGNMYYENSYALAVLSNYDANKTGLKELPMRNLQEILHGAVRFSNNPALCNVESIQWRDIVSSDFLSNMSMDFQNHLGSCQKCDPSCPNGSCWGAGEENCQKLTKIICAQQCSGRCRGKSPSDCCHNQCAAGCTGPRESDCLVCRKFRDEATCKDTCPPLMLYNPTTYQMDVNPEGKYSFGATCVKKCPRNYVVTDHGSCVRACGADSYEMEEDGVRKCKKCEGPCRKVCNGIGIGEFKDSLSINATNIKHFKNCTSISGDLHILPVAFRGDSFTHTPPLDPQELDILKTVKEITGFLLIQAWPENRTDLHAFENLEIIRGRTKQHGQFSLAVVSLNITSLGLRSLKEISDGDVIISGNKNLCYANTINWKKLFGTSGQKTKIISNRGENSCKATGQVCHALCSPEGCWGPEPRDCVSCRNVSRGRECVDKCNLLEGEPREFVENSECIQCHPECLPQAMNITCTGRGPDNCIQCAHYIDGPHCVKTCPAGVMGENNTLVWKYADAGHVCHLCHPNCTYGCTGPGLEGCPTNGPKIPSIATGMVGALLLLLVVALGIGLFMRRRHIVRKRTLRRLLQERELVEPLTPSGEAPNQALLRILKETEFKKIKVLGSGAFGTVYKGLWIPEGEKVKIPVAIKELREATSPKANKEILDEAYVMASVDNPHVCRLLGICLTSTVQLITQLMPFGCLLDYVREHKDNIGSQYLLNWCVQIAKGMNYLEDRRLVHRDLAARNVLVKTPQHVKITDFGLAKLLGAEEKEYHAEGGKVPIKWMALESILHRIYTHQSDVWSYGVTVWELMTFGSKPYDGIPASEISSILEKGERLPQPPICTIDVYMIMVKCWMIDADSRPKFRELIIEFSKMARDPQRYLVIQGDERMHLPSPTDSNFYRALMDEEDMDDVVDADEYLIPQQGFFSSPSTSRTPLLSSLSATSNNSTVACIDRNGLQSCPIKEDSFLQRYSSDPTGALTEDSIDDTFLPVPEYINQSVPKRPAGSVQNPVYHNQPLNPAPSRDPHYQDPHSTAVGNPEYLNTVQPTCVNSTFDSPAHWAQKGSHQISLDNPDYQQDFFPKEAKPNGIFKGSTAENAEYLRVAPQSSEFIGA
Sequence of PKBa(h) (P31749 whole entry): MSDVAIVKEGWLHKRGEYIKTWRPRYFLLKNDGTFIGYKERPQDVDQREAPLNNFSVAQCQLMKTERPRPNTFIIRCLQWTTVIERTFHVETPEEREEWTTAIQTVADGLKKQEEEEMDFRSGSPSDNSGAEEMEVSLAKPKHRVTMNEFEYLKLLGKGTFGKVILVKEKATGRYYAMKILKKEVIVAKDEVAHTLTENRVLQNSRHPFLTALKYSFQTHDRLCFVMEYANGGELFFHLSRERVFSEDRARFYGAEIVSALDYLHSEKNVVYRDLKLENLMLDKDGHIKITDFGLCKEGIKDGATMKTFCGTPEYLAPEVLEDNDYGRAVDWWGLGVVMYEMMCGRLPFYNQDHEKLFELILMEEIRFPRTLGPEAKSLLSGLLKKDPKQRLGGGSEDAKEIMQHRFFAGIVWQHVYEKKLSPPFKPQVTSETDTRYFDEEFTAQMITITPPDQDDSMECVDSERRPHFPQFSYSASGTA
Sequence of cSRC(h) (P12931 whole entry): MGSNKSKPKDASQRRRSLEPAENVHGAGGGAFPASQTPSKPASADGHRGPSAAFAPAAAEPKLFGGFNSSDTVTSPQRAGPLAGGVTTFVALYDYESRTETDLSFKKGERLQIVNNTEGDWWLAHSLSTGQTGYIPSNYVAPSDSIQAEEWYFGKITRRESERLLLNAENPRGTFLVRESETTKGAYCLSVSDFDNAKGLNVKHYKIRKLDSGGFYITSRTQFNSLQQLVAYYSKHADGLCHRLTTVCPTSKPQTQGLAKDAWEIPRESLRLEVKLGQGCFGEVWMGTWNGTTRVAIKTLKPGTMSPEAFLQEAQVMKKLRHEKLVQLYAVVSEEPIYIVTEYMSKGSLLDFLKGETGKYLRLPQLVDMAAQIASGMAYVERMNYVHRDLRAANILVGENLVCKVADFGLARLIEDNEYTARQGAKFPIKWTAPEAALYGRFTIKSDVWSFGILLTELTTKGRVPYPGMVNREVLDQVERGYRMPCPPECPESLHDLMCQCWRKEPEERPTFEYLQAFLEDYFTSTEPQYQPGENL
Sequence of GSK3β(h) (P49841 whole entry): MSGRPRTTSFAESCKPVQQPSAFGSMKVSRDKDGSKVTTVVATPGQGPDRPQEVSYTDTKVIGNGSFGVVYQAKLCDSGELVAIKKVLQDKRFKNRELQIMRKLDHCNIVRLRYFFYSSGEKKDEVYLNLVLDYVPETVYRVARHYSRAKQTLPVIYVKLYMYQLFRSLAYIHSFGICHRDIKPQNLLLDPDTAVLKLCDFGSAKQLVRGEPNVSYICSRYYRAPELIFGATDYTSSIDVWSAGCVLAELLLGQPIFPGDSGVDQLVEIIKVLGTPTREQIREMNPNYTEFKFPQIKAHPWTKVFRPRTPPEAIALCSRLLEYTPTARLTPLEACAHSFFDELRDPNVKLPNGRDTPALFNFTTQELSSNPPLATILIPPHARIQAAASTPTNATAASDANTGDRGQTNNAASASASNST
Sequence of Aurora-A(h) (O14965 whole entry): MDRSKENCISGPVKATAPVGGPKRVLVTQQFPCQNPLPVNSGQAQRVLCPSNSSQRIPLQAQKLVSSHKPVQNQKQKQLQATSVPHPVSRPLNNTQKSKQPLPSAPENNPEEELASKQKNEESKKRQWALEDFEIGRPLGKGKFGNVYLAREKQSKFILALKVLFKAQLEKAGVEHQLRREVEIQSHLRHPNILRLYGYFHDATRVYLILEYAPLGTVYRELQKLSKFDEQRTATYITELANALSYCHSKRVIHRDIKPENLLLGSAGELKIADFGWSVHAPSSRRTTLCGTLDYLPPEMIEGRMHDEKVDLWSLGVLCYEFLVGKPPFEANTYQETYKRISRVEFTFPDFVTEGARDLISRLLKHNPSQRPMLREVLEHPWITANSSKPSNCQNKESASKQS
Sequence of TrkA(h) (P04629 33-796): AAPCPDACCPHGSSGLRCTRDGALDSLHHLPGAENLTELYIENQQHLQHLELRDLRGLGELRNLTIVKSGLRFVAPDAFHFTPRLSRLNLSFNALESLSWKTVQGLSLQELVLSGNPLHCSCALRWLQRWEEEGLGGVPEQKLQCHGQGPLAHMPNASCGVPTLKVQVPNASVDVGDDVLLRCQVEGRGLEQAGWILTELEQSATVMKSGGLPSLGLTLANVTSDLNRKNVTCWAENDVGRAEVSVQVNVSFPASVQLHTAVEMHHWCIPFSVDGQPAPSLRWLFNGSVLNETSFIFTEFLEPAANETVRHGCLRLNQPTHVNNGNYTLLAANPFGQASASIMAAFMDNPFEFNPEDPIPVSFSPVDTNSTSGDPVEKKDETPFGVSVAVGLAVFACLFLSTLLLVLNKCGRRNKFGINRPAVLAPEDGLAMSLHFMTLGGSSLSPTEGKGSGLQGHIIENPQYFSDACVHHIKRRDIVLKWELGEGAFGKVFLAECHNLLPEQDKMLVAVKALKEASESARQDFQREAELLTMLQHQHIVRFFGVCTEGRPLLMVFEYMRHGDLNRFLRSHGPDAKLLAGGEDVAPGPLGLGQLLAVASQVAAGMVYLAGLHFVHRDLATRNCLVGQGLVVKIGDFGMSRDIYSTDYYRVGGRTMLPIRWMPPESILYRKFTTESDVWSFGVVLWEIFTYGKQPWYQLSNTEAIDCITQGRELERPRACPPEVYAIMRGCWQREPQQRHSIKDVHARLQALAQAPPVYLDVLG
Sequence of EphB4(h) (P54760 16-987): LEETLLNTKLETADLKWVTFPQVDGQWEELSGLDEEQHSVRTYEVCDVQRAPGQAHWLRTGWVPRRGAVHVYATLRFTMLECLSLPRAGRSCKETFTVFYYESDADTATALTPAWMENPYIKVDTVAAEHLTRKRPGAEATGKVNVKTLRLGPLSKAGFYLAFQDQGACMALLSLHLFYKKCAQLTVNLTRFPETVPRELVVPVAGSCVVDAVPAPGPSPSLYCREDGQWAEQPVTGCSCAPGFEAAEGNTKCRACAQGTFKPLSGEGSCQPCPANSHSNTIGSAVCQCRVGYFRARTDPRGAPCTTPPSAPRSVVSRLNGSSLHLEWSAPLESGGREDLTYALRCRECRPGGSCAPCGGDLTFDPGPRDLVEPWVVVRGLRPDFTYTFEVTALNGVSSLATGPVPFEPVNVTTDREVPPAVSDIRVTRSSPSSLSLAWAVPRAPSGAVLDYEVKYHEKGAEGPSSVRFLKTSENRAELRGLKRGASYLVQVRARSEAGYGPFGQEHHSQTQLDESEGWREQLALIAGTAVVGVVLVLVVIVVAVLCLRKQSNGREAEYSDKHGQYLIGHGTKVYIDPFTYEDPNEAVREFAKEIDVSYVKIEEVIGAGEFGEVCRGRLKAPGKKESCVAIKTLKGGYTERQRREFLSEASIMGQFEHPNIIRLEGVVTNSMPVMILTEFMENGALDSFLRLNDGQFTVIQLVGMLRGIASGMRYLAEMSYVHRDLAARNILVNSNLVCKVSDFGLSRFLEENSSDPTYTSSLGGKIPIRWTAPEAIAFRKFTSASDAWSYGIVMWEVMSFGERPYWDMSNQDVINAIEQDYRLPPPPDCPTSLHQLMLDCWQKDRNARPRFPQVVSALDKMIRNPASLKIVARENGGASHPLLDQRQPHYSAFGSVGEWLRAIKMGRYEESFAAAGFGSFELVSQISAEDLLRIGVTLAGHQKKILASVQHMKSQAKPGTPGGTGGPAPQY

| SMILES | tumor inhibition as single agent [4] | inhibition at 1 µM (EphB4(h)) | inhibition at 1 µM (cSRC(h)) | inhibition at 1 µM (GF-1R(h), activate) | inhibition at 1 µM (Met(h)) | inhibition at 1 µM (Ab1(h)) | inhibition at 1 µM (mTOR(h)) | inhibition at 1 µM (Ret(h)) | inhibition at 1 µM (cKit(h)) | inhibition at 1 µM (Flt3(h)) | inhibition at 1 µM (Aurora-A(h)) | inhibition at 1 µM (GSK3β(h)) | inhibition at 1 µM (MEK1(h)) | inhibition at 1 µM (PKBa(h)) | inhibition at 1 µM (TrkA(h)) | inhibition at 1 µM (EGFR(h)) | inhibition at 1 µM (PDGFRa(h)) | enhancement of the antitumor activity of Abraxane [4, 6] | F ([5]; Oral dosing) | AUC(0-inf) ([5]; in vivo, IV dosing) | also measured |
| --- | --- | --- | --- | --- | --- | --- | --- | --- | --- | --- | --- | --- | --- | --- | --- | --- | --- | --- | --- | --- | --- |
| CC1=C2C[C@H]3[C@@H](CC[C@@H]4C[C@H](NS(C)(=O)=O)CC[C@@]43C)[C@@H]2CC[C@@]2(C1)O[C@@H]1C[C@H](C)CN[C@H]1[C@H]2C [IPI-926, IPI926] | – | – | – | – | – | – | – | – | – | – | – | – | – | – | – | – | – | – | – | – | average peak time for contrast agent levels ([1]; 40 mg/kg orally for seven consecutive days, vehicle 11.0 seconds, p=0.0321): 4.75 s; Time to Peak (contrast) ([1]; individual mice, 40 mg/kg orally for seven consecutive days, 40 mg/kg): 3 s and 4 s and 6 s (2×); tumor perfusion ([1]; subcutaneous L3.6pl model, 40 mg/kg orally for seven days): increased tumor perfusion; median % of mice on study (mice taken off study when tumors reached 1000 mm^3) [2]: no effect as a single agent; tumor growth inhibition [3]: 38%; murine Gli1 mRNA expression (murine Gli1 mRNA): inhibition of murine Glil mRNA expression; human Gli1 mRNA levels (human Gli1 mRNA): not modulated |
| CS(=O)(=O)c1ccc(C(=O)Nc2ccc(Cl)c(-c3nccc4ccccc34)c2)c(Cl)c1 [ABI1914] | none of ABI2012, ABI1914, ABI2088, and ABI2099 as single agent showed significant tumor inhibition effects | -12% | 3% | -5% | 3% | -18% | 6% | -3% | -4% | -14% | 1% | 3% | -9% | 5% | -12% | -3% | -3% | – | – | – | – |
| CC(=O)Nc1ccc(C(=O)Nc2ccc(Cl)c(-c3nccc4ccccc34)c2)c(Cl)c1 [ABI2088] | none of ABI2012, ABI1914, ABI2088, and ABI2099 as single agent showed significant tumor inhibition effects | – | – | – | – | – | – | – | – | – | – | – | – | – | – | – | – | significantly enhanced the antitumor activity of Abraxane® | 62% | 1390 ± 164 ng·h/mL | tumor growth inhibition in combination with Abraxane ([4]; day 22, compound 75 mg/kg qdx12 i.p. + Abraxane 10 mg/kg q4dx3 i.v.): about 100%; clearance ([5]; in vivo, IV dosing): 12.1 ± 1.59 mL/min/kg; half-life ([5]; in vivo, IV dosing): 78.6 ± 8.4 min; Vd ([5]; in vivo, IV dosing, read-out: Vss): 1.02 ± 0.11 L/kg; AUC(0-inf) ([5]; in vivo, Oral dosing): 4310 ± 1200 ng·h/mL; Cmax ([5]; in vivo, Oral dosing): 1000 ± 659 ng/mL; Tmax ([5]; in vivo, Oral dosing): 30 min |
| CS(=O)(=O)c1ccc(C(=O)Nc2ccc(Cl)c(-c3ccccn3)c2)c(Cl)c1 [GDC-0449] | none of ABI2012, ABI1914, ABI2088, and ABI2099 as single agent showed significant tumor inhibition effects | -33% | -1% | 8% | -19% | 13% | -6% | 1% | -4% | 1% | 7% | -4% | 2% | -19% | -7% | -9% | 0% | – | 53% | 3980 ± 1540 ng·h/mL | clearance ([5]; in vivo, IV dosing): 4.65 ± 1.81 mL/min/kg; half-life ([5]; in vivo, IV dosing): 79.2 ± 15.5 min; AUC(0-inf) ([5]; in vivo, Oral dosing): 10500 ± 3150 ng·h/mL; Cmax ([5]; in vivo, Oral dosing): 2760 ± 1020 ng/mL; Tmax ([5]; in vivo, Oral dosing): 40 ± 17.3 min |
| Cc1cc(C(F)(F)F)ccc1C(=O)Nc1ccc(Cl)c(-c2nccc3ccccc23)c1 [ABI2099] | none of ABI2012, ABI1914, ABI2088, and ABI2099 as single agent showed significant tumor inhibition effects | – | – | – | – | – | – | – | – | – | – | – | – | – | – | – | – | significantly enhanced the antitumor activity of Abraxane® | – | – | – |
